Source: EP0055996A1, “Antithrombotic treatment” (T AND R CHEMICALS, INC., priority 1980, dated 1982)

Assays:
coagulation factors [1] = experiment: In vitro prothrombin time (PT) coagulation assay; parameters: species or system human; details: for PT(sec) REPLICATIONS I: replication I
Method: (§1) In vitro assays of the product of each of Examples A to C and certain of the Examples included in European Application No 81302950.1 were conducted for coagulation factors as described in "Human Blood Coagulation., Haemostasis and Thrombosis", edited by Rosemary Biggs, published by Blackwell Scientific Publications, Oxford, England (2nd Edition), pages 670-705, 1976.

coagulation factors [2] = experiment: In vitro partial thromboplastin time (PTT) coagulation assay; parameters: species or system human; details: for PTT(sec) REPLICATIONS I: replication I
Method: as §1

[3] = Used at 0.01 Molar Concentration Based on NaHSO3
[4] = Used at 0.01 Molar Concentration Based on NaHSO3, replication II
[5] = Used at 0.01 Molar Concentration Based on NaHSO3, replication III

SMILES	PT(sec) REPLICATIONS I (coagulation factors [1]; [3]) [s]	PT(sec) REPLICATIONS II (coagulation factors [1]; [4]) [s]	PT(sec) REPLICATIONS III (coagulation factors [1]; [5]) [s]	PTT(sec) REPLICATIONS I (coagulation factors [2]; [3]) [s]	PTT(sec) REPLICATIONS II (coagulation factors [2]; [4]) [s]	PTT(sec) REPLICATIONS III (coagulation factors [2]; [5]) [s]	ability to affect PT values (coagulation factors [1]; no conditions given)	ability to affect PTT values (coagulation factors [2]; no conditions given)
O=S([O-])O.[Na+] [NaHSO3 in water, sodium bisulphite]	20.2	20.3	20.0	64.4	63.2	63.9		
O=S=O [aqueous solutions of sulphur dioxide, sulphur dioxide]							display a capacity to lengthen PT and PTT values at least to the extent indicated above	display a capacity to lengthen PT and PTT values at least to the extent indicated above
O=S(=O)(O)CO [Sodium formaldehyde bisulphite]	20.5			63.5				
